Test results from patent US20070173450A1, “PROCESS FOR THE SYNCHRONIZATION OF OVULATION FOR TIMED BREEDING WITHOUT HEAT DETECTION” (priority 2003, published 2007).

Columns and labels:
Assay type in all cases: in vivo, swine
mature postpartum sows = experiment: Intravulvar deslorelin at estrus detection in mature postpartum sows, AI breeding; conditions: live piglets born per litter, treated versus control
Experimental: Sows were assigned randomly in blocks of two to either control or to be injected intravulvar with 50 mcg of deslorelin in SAIB at the time of estrus detection for sows first detected in estrus in the a.m. and 12 hours later for those first detected in estrus in the p.m. Treated animals were bred AI upon detected estrus and again 24 hours later if still in estrus. Controls received a saline injection on first detected estrus behavior estrus detection and were bred according to the farm's normal procedures.

postpartum sows [1] = experiment: Litter size after deslorelin treatment in sows at three farm sites; conditions: Tables 3-5, three farm sites, regardless of estrus detection
Excerpt: Postpartum sows were randomly distributed into three different groups comprised of Controls, Treatment 1, and Treatment 2, with the exception of Site 3, which was divided into two groups, Control and Treatment 2. Control sows were detected for estrus following weaning, and bred following the normal standard operating procedures for the farms on which they resided. Treatment 1 sows were detected for estrus following weaning, and received a 50 mcg dose of deslorelin in the morning when standing and were bred by AI 4 hours later and again at 24+/−2 hours later. Treatment 2 sows received a 50 mcg dose of deslorelin in SAIB at 96 or 120 hours post-weaning and were bred with a single insemination 28+/−2 hours later with no regard to estrus detection.

postpartum sows [2] = experiment: Single timed deslorelin injection 96 h post-weaning, single timed insemination without estrus detection; conditions: 50 mcg deslorelin in SAIB 96 h post-weaning
Experimental: Approximately 170 postpartum sows were randomly divided into two equal groups comprised of controls and treated. Following weaning, the controls were detected for estrus and bred following the normal standard operating procedures for the farms on which they resided. The treated sows received a 50 mcg dose of deslorelin in SAIB at 96 hours post-weaning and were bred with a single insemination 28+/−2 hours later with no regard to estrus detection. The sows were examined for pregnancy by ultrasound at 21 days and slaughtered around 28 days post breeding. The entire reproductive tract was removed and corpora lutea and embryos were counted.

CCNC(=O)[C@@H]1CCCN1C(=O)[C@H](CCCN=C(N)N)NC(=O)[C@H](CC(C)C)NC(=O)[C@@H](Cc1c[nH]c2ccccc12)NC(=O)[C@H](Cc1ccc(O)cc1)NC(=O)[C@H](CO)NC(=O)[C@H](Cc1c[nH]c2ccccc12)NC(=O)[C@H](Cc1cnc[nH]1)NC(=O)[C@@H]1CCC(=O)N1 [Deslorelin, deslorelin]
Live piglet number, Deslorelin versus Saline sows (greater by) (mature postpartum sows): Live piglet number 0.6> in Deslorelin versus Saline sows.
litter sizes (in words) (postpartum sows [1]): normal litter sizes
Pregnancy Rate (postpartum sows [2]; single AI 28+/-2 h later, no estrus detection): 71%
Embryo Survival (postpartum sows [2]; slaughter around 28 days post breeding): 64%
Sows Pregnant (postpartum sows [2]; of 84 in group, single AI 28+/-2 h later, no estrus detection): 60
